Values quoted from earlier work in US20110189319A1, “Lifeforce liquid supplement” (priority 2010, published 2011).
Where two headings read alike, the source gives them in different places.

Columns and labels:
[1] = test system: patients affected by chronic cerebrovasculopathy; settings: 1000 mg/day i.m.
[2] = test system: patients with Alzheimer disease; settings: 1,000 mg/day
AMD patients = settings: 10 mg daily, 12 months
[3] = in vivo
lymphocytes = settings: relative to beta-carotene
[4] = test system: permanent middle cerebral artery occlusion in rats; settings: rats, 2,3,5-triphenyltetrazolium-chloride staining
[5] = in vivo; remark: listed apart in the source
[6] = target: phosphodiesterase (PDE) type-1
[7] = not given; remark: listed apart in the source
[8] = test system: patients suffering from mild to moderate dementia; settings: 10 or 20 mg three times a day, sixteen weeks
[9] = test system: elderly patients with chronic cerebral dysfunction
[10] = test system: healthy female volunteers; settings: 40 mg three times a day, two days
[11] = test system: patients suffering from multiple cerebral infarcts
[12] = oral, healthy male volunteers, PET
exercise capacity = settings: 750 mg soybean-derived daily for 10 d
young adults = settings: 300 mg each day for a month, neuroticism scores above the median
[13] = test system: healthy elderly volunteers; settings: 100 mg×3/day p.o., 12 weeks
[14] = test system: elderly with age-associated memory impairment; settings: in vivo
women = settings: highest versus least dietary intake
[15] = test system: female health professionals; settings: about 262.4 versus 4.4 milligrams per day
[16] = 100 microM, ascorbate/Fe2+ oxidative stress
[17] = 2,038 subjects without hypertension
[18] = 2,238 subjects not using drugs, supplements or special diet
[19] = high (0.67% kcal) versus lower intake, all participants

C[N+](C)(C)CCOP(=O)(O)OP(=O)([O-])OC[C@H]1O[C@@H](n2ccc(N)nc2=O)[C@H](O)[C@@H]1O [Citicoline, cytidine 5′-diphosphocholine]
bioavailability (in vivo): greater than 90% | excreted in feces (oral doses, healthy adults): less than one | first plasma peak after ingestion (oral, biphasic): one | second larger plasma peak post-dosing (oral, biphasic): 24 h | side-effects [1]: No side-effects were detected | tolerability [2]: well tolerated

CC1=C[C@H](O)CC(C)(C)[C@H]1/C=C/C(C)=C/C=C/C(C)=C/C=C/C=C(C)/C=C/C=C(C)/C=C/C1=C(C)C[C@@H](O)CC1(C)C [Lutein]
increase in macular pigment density relative to placebo (AMD patients): 50% | visual function (glare recovery, contrast sensitivity, visual acuity) vs. placebo (AMD patients): significant improvements | bioavailability [3]: approximately 70%

CC(C)=CCC/C(C)=C/C=C/C(C)=C/C=C/C(C)=C/C=C/C=C(C)/C=C/C=C(C)/C=C/C=C(\C)CCC=C(C)C [Lycopene]
protection of lymphocytes from membrane damage and cell death (lymphocytes): twice as efficiently as beta-carotene

C[C@]12N[C@H](Cc3ccccc31)c1ccccc12 [MK-801]
decrease of infarct volume compared to control [4]: 18%

CC(C)=CCC[C@](C)(O[C@@H]1O[C@H](CO[C@@H]2O[C@H](CO)[C@@H](O)[C@H](O)[C@H]2O)[C@@H](O)[C@H](O)[C@H]1O)[C@H]1CC[C@]2(C)[C@@H]1[C@H](O)C[C@@H]1[C@@]3(C)CC[C@H](O[C@@H]4O[C@H](CO)[C@@H](O)[C@H](O)[C@H]4O[C@@H]4O[C@H](CO)[C@@H](O)[C@H](O)[C@H]4O)C(C)(C)[C@@H]3CC[C@]12C [Rb1, Ginsenoside Rb1]
oral bioavailability ([5]; po): low oral bioavailability

CC(C)=CCC[C@](C)(O[C@@H]1O[C@H](CO)[C@@H](O)[C@H](O)[C@H]1O)[C@H]1CC[C@]2(C)[C@@H]1[C@H](O)C[C@@H]1[C@@]3(C)CC[C@H](O)C(C)(C)[C@@H]3[C@@H](O[C@@H]3O[C@H](CO)[C@@H](O)[C@H](O)[C@H]3O)C[C@]12C [Rg1, ginsenoside Rg1]
elimination from the blood [5]: rapidly eliminated from the blood

CCOC(=O)C1=C[C@]2(CC)CCCN3CCc4c(n1c1ccccc41)[C@@H]32 [Vinpocetine]
IC50 [6]: ~10 µM | decrease of infarct volume compared to control [4]: 42% | decrease of DCFH2-DA fluorescence (rat brain synaptosomes; [16]): about 50% | decrease of DHR 123 fluorescence (rat brain synaptosomes; [16]): ~83% | ascorbate/Fe2+ stimulated consumption of oxygen and TBARS accumulation (rat brain synaptosomes; concentration-dependent): inhibited | absorption of an ingested dose ([7]; given with food): up to 60% | elimination half-life following ingestion ([7]; in vivo): one to two | levels peak in the bloodstream after ingestion ([7]; in vivo): an hour and a half | time to peak plasma levels after ingestion ([7]; in vivo): one to one and a half | absorption of an ingested dose ([7]; on an empty stomach): ≥ 7% | time in which most of a dose is excreted as apovincaminic acid ([7]; urine): ≤ 24 h | cognitive improvement versus placebo [8]: Statistically significant cognitive improvements | side effects [8]: no clinically relevant side effects | cognitive evaluations versus placebo ([9]; 10 mg tid thirty days, then 5 mg tid sixty days): scored consistently better in all cognitive evaluations | side effects ([9]; ninety-day trial): No serious side effects | memory versus placebo [10]: significantly improved | side effects ([11]; in vivo): No serious side effect | digit span backward test ([11]; three months): did not show any significant worsening | flow velocities after breath holding, acute phase, versus placebo ([11]; transcranial Doppler): significantly lower

CCOC(=O)C1=C[C@]2(CC)CCCN3CCc4c(n1c1ccccc41)[C@@H]32 [[11C] vinpocetine]
average maximum brain uptake [12]: 0.7 % of the administered total dose

COc1ccc2c(=O)oc3c(OC)cc(CCN(C)C)c4c(=O)oc1c2c34 [taspine]
activity against herpes virus (herpes virus): active

Phosphatidylserine
exercise capacity (exercise capacity): improved exercise capacity | feelings of stress and mood (young adults): feeling less stressed and having a better mood | outcome measures of age related cognitive decline [13]: significant drug over time effect | safe dosage for older persons [14]: ≤ 200 mg three times daily

omega-3 fatty acid
average diastolic reduction (INTERMAP participants; [17]): 0.92 mm Hg | average systolic reduction (INTERMAP participants; [17]): 0.91 mm Hg | reduction in diastolic blood pressure (INTERMAP participants; [18]): 0.98 mm Hg | reduction in systolic blood pressure (INTERMAP participants; [18]): 1.01 mm Hg | lower average diastolic blood pressure (INTERMAP participants; [19]): 0.57 mm Hg | lower average systolic blood pressure (INTERMAP participants; [19]): 0.55 mm Hg | lower risk of dry eye syndrome (women): 17%

vitamin E
less likely to develop cataracts [15]: 14%
